Columns and labels:
[1] = test system: PDE3; test: PDE3 inhibition (PDE3/4 IC50); assay type: biochemical; details: first value of PDE3/4 pair
[2] = test system: ovalbumin-sensitized/-challenged Brown-Norway rat; test: Late inflammatory airway reaction in the ovalbumin-sensitized/-challenged Brown-Norway rat (BAL); details: summary of the table; i.t.; Roflumilast 0.3 μmol/kg, Pumafentrine 3 μmol/kg, Salmeterol 3 pmol/kg [sic]
[3] = test system: PDE4; test: PDE4 inhibition (PDE3/4 IC50); assay type: biochemical; details: second value of PDE3/4 pair

IC50 [1] [nM]	IC50 [3] [nM]	SMILES	effect on cell infiltration and protein accumulation in BAL fluid, in words [2]
28	7	CCOc1cc2c(cc1OC)C(c1ccc(C(=O)N(C(C)C)C(C)C)cc1)=N[C@@H]1CCN(C)C[C@H]21 [Pumafentrine]	did not show any significant effects
–	–	OCc1cc(C(O)CNCCCCCCOCCCCc2ccccc2)ccc1O (single isomer, unassigned; (+)) [Salmeterol, (+)-4-hydroxy-α^1-[[[6-(4-phenylbutoxy)hexyl]amino]methyl]-1,3-benzenedimethanol]	exhibited inhibitory effects
> 10000	0.7	O=C(Nc1c(Cl)cncc1Cl)c1ccc(OC(F)F)c(OCC2CC2)c1 [Roflumilast]	did not show any significant effects

— patent US7056936B2, “Synergistic combination” (Altana Pharma AG, priority 1998, dated 2006)
